Experimental data reported in PMC6576746, “Rational discovery of dual-indication multi-target PDE/Kinase inhibitor for precision anti-cancer therapy using structural systems pharmacology” (PLoS Computational Biology, 2019).

Assays:
Experiment in all cases: cells
Set-up in all cases: species or system panel of human cancer cell lines; Eurofins OncoPanel proliferation; nuclei count by high-content fluorescence imaging, 10-point dose response
[1] = test system: SUP-T1; conditions: Homo sapiens, SUP-T1, 72 h, cell count, 3 days
In short: (§1)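 Cells in RPMI 1640/10% FBS or special medium received compound the day after seeding, with a time-zero plate; 3-day incubation at 37°C, 5% CO2. Nuclei imaged by fluorescence microscopy; 10 half-log doses from 100 μM, 0.1% DMSO. EC50, IC50, GI50 and activity area (0–10) from curve fits.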

[2] = test system: M059J; conditions: Homo sapiens, M059J, 72 h, cell count, 3 days
In short: as §1

[3] = test system: CEM-C1; conditions: CEM/C1, 72 h, cell count, 3 days
In short: as §1

[4] = test system: NCI-H295R; conditions: Homo sapiens, NCI-H295R, 72 h, cell count, 3 days
In short: as §1

[5] = test system: Hs 852.T; conditions: 72 h, cell count, 3 days
In short: as §1

[6] = test system: HEL-92-1-7; conditions: Homo sapiens, HEL 92.1.7, 72 h, cell count, 3 days
In short: as §1

[7] = test system: HeLa; conditions: Homo sapiens, HeLa, 72 h, cell count, 3 days
In short: as §1

[8] = test system: HEC-1-A; conditions: Homo sapiens, HEC-1-A, 72 h, cell count, 3 days
In short: as §1

[9] = test system: OVCAR3; conditions: Homo sapiens, OVCAR-3, 72 h, cell count, 3 days
In short: as §1

[10] = test system: SW1783; conditions: Homo sapiens, SW1783, 72 h, cell count, 3 days
In short: as §1

[11] = test system: SNU-1; conditions: Homo sapiens, SNU1, 72 h, cell count, 3 days
In short: as §1

[12] = test system: Hs 934.T; conditions: 72 h, cell count, 3 days
In short: as §1

[13] = test system: Hs 578T; conditions: Homo sapiens, Hs-578T, 72 h, cell count, 3 days
In short: as §1

[14] = test system: SR; conditions: Homo sapiens, SR, 72 h, cell count, 3 days
In short: as §1

[15] = 50% of maximum possible response

`C[C@@H]1CC(=O)NN=C1c1ccc(NN=C(C#N)C#N)cc1` [levosimendan] gave an IC50 [1, 15] of 15.6 µM, a GI50 ([1]; corrected for time zero) of 11 µM and an EC50 ([1]; curve inflection point) of 15.6 µM. It also gave an IC50 [2, 15] of 51.5 µM, a GI50 ([2]; corrected for time zero) of 38.5 µM and an EC50 ([2]; curve inflection point) of 48.8 µM. It also gave an IC50 [3, 15] of 22.5 µM, a GI50 ([3]; corrected for time zero) of 18.8 µM and an EC50 ([3]; curve inflection point) of 22.5 µM. It also gave an IC50 [4, 15] of 91.6 µM, a GI50 ([4]; corrected for time zero) of 57.1 µM and an EC50 ([4]; curve inflection point) of 91.6 µM. For the same molecule, the IC50 [5, 15] was 82.2 µM, the GI50 ([5]; corrected for time zero) was 25 µM and the EC50 ([5]; curve inflection point) was 82.2 µM. For the same molecule, the IC50 [6, 15] was 21.8 µM, the GI50 ([6]; corrected for time zero) was 17.9 µM and the EC50 ([6]; curve inflection point) was 21.8 µM. For the same molecule, the IC50 [7, 15] was 91.2 µM, the GI50 ([7]; corrected for time zero) was 75 µM and the EC50 ([7]; curve inflection point) was 91.2 µM. It also gave an IC50 [8, 15] of 34.3 µM, a GI50 ([8]; corrected for time zero) of 28.2 µM and an EC50 ([8]; curve inflection point) of 34.3 µM. The IC50 [9, 15] was 42.6 µM, the GI50 ([9]; corrected for time zero) was 24.1 µM and the EC50 ([9]; curve inflection point) was 42.6 µM. It also gave an IC50 [10, 15] of 82.1 µM, a GI50 ([10]; corrected for time zero) of 35.6 µM and an EC50 ([10]; curve inflection point) of 82.1 µM. The IC50 [11, 15] was 6.31 µM, the GI50 ([11]; corrected for time zero) was 5.53 µM and the EC50 ([11]; curve inflection point) was 5.52 µM. The IC50 [12, 15] was greater than 100 µM, the GI50 ([12]; corrected for time zero) was greater than 100 µM and the EC50 ([12]; curve inflection point) was greater than 100 µM. For the same molecule, the IC50 [13, 15] was greater than 100 µM, the GI50 ([13]; corrected for time zero) was greater than 100 µM and the EC50 ([13]; curve inflection point) was 48 µM. It also gave an IC50 [14, 15] of 16.1 µM, a GI50 ([14]; corrected for time zero) of 14.7 µM and an EC50 ([14]; curve inflection point) of 15.6 µM.
